One series deals with T1, IGF-1R (Mus musculus, UniProt Q60751).
T1 construct: from tissue; host or cells: MCNeuA tumours excised from neuTg mice
The series can be described thus: IGF-1R autophosphorylation in excised MCNeuA tumors (ELISA). It counts as in vivo. To be noted: 37.5 mg/kg i.p. three times a week, 16 hours after final dose, vs vehicle. On the procedure: Tumors were homogenized in 50 mM HEPES, pH 7.6, 150 mM NaCl, 1 mM PMSF, 2 μM leupeptin, 2 μM Pepstatin A, and 2 mM Na3VO4, and solubilized by the addition of 1% Triton x-100. Soluble lysates were prepared as described for cell culture studies. Tyrosine phosphorylation of IGF-1R was determined by ELISA as described for MCF-7 cells. Phosphorylation of HER2/neu was determined by western blot employing the phospho-specific antibody as in the cell culture studies. The degree of phosphorylation for each receptor was normalized to total receptor protein content in the tumor samples as determined by western blotting with antibodies against the human IGF-1R and the rodent HER2/neu.

The target of a further series is T2, IGF-IR (Homo sapiens, UniProt P08069).
T2 construct: endogenous in cells; host or cells: SH-SY5Y and SHEP
The series can be described thus: IGF-IR phosphorylation ELISA in neuroblastoma cells. In kind it is cell-based. To be noted: SHEP and SH-SY5Y cells, 60 μM NDGA 1 h, 1 nM IGF-I 10 min. On the procedure: IGF-1R phlosphorylation ELISA. SH-SY5Y and SHEP cells were grown to 80% confluence in DMEM/10% calf serum, then serum-starved for 4 h. […] Some cultures were then treated with 1 nM IGF-I for 10 min. The medium was removed, cultures rinsed 3× in cold PBS, and lysis buffer (120 mM HEPES, 300 mM NaCl, 2 mM sodium orthovanadate, and 1 mM phenylmethylsufonylfluoride (PMSF)) was added. Cultures were rocked in lysis buffer at 4° C. for 1 h. 96-well plates were coated with αIR-3 antibody in 50 mM NaHCO3, pH 9.0, for 2 h at RT. Plates were rinsed 3× in tris-buffered saline +0.1% Tween (TBST), then blocked with SuperBlock (Pierce, Rockford, Ill.) for 30 min at RT. Each well of the ELISA plate received 30 μg of lysate protein from the cell cultures, followed by 24 h incubation at 4° C. Plates were rinsed 5× with TBST, and HRP-conjugated anti-phosphotyrosine antibody was added (1:2000, diluted in 120 mM HEPES, 300 mM NaCl, 2 mM sodium orthovanadate. and 1 mM PMSF. 1% bovine serum albumin, 1 mg/ml bacitracin, and 0.5% Tween-20) for 2 h at RT. Plates were again rinsed 5× in TBST, and TMB (Pierce) was added until blue color was sufficiently developed. […] Each lysate was run in triplicate, and the experiment was repeated 3 times.
In general terms: An ELISA detects its analyte on a solid surface through an enzyme-linked reagent.

The subject of the next series is SH-SY5Y cells. Nature of the series: Propidium iodide flow cytometry of apoptotic (sub-G0) SH-SY5Y cells. The conditions noted are these: SH-SY5Y cells in serum, 30-120 μM, 24 h. In kind it is cell-based, human. On the procedure:
Propidium iodide staining of apoptotic cells. SH-SY5Y cells were cultured in DMEM with 10% calf serum. […] The supernatant was collected to save detached cells. Attached cells were removed from the plate via trypsinization, and pelleted by centrifugation in combination with the cells in the supernatant. The cell pellet was fixed by drop-wise addition of cold 70% ethanol while vortexing, gently, and stored at 4° C. The pellet was washed twice and resuspended in PBS and stained with 1 μg/ml propidium iodide. Propidium iodide fluorescence was measured in 30,000 cells per sample using a Becton-Dickinson (Franklin Lakes, N.J.) Facscalibur flow cytometer. The percentage of cells in each stage of the cell cycle, as well as the percentage of cells that were apoptotic (sub-G0) was determined by analyzing the data with ModFit software. The experiment was repeated three times.
A general note: Flow cytometry measures light scatter and fluorescence of single cells or particles in a stream.

The test system of a further series is MCF-7/HER2-18 cells. Nature of the series: Growth of MCF-7/HER2-18 cells with RTK inhibitors, 6 days (CyQuant). The conditions noted are these: read-out: one half maximal effect on growth. It counts as cell-based, human. On the procedure: MCF-7/neo or MCF-7/HER2-18 cells were plated in 96 well plates (4×10^3 cells/well) in 100 μl/well of DMEM-10 medium. […] Media with inhibitors was refreshed on day 3 and the cultures were harvested on day 6. The plates were inverted onto paper towels with gentle blotting to remove growth medium without disrupting adherent cells. Each plate was kept at −80° C. until assayed for cell growth. After thawing the plate at room temperature, 200 μl of CyQuant GR solution was added to each well and the plates were incubated in the dark for five minutes. Fluorescence was measured with a SpectraMax Gemini XS fluorescence microplate reader (Molecular Devices) with 480-nm excitation and 520-nm emission.

For the next series, the system named is MCF-7/neo cells. The series can be described thus: Tamoxifen and/or NDGA growth inhibition of MCF-7/neo cells (CyQuant). To be noted: Homo sapiens, MCF7. In kind it is cell-based. How it is done:
Cells were estrogen-starved for three days in DMEM containing 10% charcoal-[…]-stripped FCS (CDSS) prior to their plating in 96 well plates. Cells were plated in 100 μl of the same media, allowed to adhere overnight, and then were switched to DMEM+10% CDSS supplemented with 100 pM estrogen. […] The media and inhibitors were refreshed on day 3, the cultures were harvested on day 6, and a CyQuant assay was performed as described above.

The test system of the next series is IGF-1. The series can be described thus: IGF-1 activation in pancreatic cancer cells. In kind it is cell-based.
The conditions of series [1]: pure NDGA; cited from earlier work.

Where two headings read alike, the source gives them in different places.

One may read the inhibition as how much of the control response was suppressed.

T2 sequence (P08069 31-1367): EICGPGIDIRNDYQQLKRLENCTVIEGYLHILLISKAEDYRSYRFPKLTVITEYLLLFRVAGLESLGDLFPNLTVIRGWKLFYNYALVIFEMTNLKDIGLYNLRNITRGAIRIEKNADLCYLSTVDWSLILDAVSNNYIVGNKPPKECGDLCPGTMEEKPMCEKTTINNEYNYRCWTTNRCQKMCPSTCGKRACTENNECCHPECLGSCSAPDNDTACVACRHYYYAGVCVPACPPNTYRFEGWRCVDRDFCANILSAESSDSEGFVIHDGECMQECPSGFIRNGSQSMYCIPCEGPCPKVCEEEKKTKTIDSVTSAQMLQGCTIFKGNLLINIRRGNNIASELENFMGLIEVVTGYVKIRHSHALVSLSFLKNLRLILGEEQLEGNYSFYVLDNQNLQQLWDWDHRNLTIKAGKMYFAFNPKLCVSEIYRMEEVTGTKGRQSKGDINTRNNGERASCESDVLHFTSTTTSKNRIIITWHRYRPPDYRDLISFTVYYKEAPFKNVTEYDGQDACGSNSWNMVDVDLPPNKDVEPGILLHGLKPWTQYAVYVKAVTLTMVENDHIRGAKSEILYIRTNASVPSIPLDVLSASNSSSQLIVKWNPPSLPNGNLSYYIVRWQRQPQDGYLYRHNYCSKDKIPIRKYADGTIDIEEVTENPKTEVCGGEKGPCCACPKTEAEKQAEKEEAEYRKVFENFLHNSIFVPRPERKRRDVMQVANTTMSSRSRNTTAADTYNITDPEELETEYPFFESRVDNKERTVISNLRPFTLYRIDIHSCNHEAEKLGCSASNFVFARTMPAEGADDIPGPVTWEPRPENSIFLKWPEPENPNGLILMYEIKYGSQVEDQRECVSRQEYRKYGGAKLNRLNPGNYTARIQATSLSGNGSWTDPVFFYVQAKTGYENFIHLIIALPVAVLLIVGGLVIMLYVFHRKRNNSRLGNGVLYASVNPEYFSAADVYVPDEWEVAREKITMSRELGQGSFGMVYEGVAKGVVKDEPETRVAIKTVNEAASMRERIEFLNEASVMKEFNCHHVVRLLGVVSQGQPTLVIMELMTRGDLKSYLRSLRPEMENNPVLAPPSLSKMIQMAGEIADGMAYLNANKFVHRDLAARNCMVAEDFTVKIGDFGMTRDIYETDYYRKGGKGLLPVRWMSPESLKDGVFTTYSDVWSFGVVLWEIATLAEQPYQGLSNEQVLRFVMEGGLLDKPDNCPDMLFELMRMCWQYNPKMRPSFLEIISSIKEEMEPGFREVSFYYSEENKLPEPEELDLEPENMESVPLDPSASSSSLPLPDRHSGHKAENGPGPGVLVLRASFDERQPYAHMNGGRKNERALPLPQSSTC
T1 sequence (Q60751 31-1373): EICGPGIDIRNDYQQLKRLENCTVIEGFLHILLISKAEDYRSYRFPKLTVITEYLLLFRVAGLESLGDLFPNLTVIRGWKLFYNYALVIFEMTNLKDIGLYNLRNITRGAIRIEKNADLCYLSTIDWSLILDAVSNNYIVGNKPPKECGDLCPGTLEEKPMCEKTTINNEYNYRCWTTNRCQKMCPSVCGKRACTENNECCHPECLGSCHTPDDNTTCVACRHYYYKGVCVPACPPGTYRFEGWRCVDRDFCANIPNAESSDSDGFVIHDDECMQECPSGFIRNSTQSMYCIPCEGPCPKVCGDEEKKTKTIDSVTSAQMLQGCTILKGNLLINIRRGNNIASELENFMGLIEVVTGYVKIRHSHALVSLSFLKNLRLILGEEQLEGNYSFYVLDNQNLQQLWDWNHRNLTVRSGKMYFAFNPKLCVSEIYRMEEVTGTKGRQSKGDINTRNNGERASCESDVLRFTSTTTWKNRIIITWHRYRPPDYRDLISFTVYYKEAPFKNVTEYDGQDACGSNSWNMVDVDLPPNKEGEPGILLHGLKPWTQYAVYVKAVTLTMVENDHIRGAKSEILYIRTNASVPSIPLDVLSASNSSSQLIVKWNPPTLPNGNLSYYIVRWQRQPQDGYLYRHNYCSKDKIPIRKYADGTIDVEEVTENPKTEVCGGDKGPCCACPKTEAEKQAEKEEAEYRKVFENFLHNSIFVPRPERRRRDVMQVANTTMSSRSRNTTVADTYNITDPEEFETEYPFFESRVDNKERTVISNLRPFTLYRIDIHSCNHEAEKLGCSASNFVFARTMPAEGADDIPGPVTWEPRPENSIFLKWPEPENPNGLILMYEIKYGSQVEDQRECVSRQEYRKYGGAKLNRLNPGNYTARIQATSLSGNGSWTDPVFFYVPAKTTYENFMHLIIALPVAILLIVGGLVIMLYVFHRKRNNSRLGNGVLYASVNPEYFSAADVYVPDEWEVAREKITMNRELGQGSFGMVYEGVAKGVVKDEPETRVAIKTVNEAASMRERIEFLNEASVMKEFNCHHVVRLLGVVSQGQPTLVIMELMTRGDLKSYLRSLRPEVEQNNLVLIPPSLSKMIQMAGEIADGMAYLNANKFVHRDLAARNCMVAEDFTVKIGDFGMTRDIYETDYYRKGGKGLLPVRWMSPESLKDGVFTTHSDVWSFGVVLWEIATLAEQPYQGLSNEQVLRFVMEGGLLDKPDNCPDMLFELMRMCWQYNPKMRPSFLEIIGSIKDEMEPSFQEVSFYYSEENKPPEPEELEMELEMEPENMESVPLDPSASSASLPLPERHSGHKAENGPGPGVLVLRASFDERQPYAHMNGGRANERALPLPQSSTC

In the case of `CC(Cc1ccc(O)c(O)c1)C(C)Cc1ccc(O)c(O)c1` (stereo not drawn) [NDGA, nordihydroguaiaretic acid], the “IGF-1R autophosphorylation in tumors” value on IGF-1R is recorded as “reduced”. Moreover, the “IGF-I stimulated IGF-IR tyrosine phosphorylation” value at IGF-IR was “inhibited”. In the series with SH-SY5Y cells, the “percentage of sub-G0 cells” value was “dramatic, dose-dependent increase”. The IC50 in the series with MCF-7/HER2-18 cells (Homo sapiens, 144 h) was 12.5 µM. Moreover, the IC50 in the series on MCF-7/HER2-18 cells was in the range of 10 to 20 µM. Besides, in the series with MCF-7/neo cells, the inhibition at 10 µM came to 23% and at 15 µM the inhibition was 55%. Also, in the series with IGF-1, the IGF-1 activation entry is given as “inhibiting”. Also, the toxicity result in series [1] is “minimal toxicity”.

Values taken from patent publication US8143226B2, “Tyrosine kinase receptor antagonists and methods of treatment for breast cancer” (The Regents of the University of California, priority 2005, dated 2012).
